How the values were obtained:
MPO activity = assay: Colonic inflammation by MPO assay in distal colon tissue, TNBS colitis; format: in vivo, Male Sprague Dawley rats; conditions: 11 days after TNBS, 8 days of treatment; mean±SEM; TNBS colitis 703+130
Description: Fasted animals were lightly anesthetized with isoflurane and then subjected to enema administration of TNBS and subsequently study drugs. The experimental protocol is similar to that previously described (20). The tip of polyethylene catheter was advanced […] 8 cm to the distal colon and a single dose of TNBS (Sigma, St. […] Following the administration of TNBS the animals were maintained in a head-down position for approximately 60 seconds to prevent leakage of the infusate. Three days after TNBS dosing rats were randomly assigned to receive one of the following treatments by enema in a manner similar to that used for TNBS administration. The TNBS treated animals received one of the following therapies 5-ASA (100 mg/kg) alone or 5-ASA in combination with one of the following: vitamin C (100 mg/kg), phenyl butylnitrone (PBN; 30 mg/kg) and vitamin E (a tocopherol; 50 mg/kg solubilized in DMSO). The doses of selected antioxidants were derived from the literature in which these agents had been used in experimental models of disease or IBD (19, 22, 23). Comparator groups included TNBS dosed rats that received 8 doses of rectal saline and saline treated controls. Rats were treated for 8 days and then sacrificed. MPO activity was measured in colonic tissue samples by colorimetric assay. […] The absorbance changes were read at 450 nm and recorded. Results are expressed as nanograms per gram of tissue. […]

TNBS colitis [1] = assay: Microscopic (histological) injury of distal colon in TNBS colitis, rectal (enema) treatment; format: in vivo, Male Sprague Dawley rats
Description: (§1) Male Sprague Dawley rats weighing 200-250 grams were housed in the animal facility in cages containing contact bedding. Rats were deprived of food but not water for 24 hrs prior to the induction of colitis. Institutional approval for experimental protocols was provided by the research and animal care committees of the Research Services at the Oklahoma City Veterans Administration Medical Center.
(§2) Fasted animals were lightly anesthetized with isoflurane and then subjected to enema administration of TNBS and subsequently study drugs. The experimental protocol is similar to that previously described (20). The tip of polyethylene catheter was advanced transanally 8 cm to the distal colon and a single dose of TNBS (Sigma, St. Louis, Mo.), was instilled intraluminally (15 mg of TNBS dissolved in a 0.6 ml volume of 50% ethanol) to induce colitis. Following the administration of TNBS the animals were maintained in a head-down position for approximately 60 seconds to prevent leakage of the infusate.
Three days after TNBS dosing rats were randomly assigned to receive one of the following treatments by enema in a manner similar to that used for TNBS administration. The TNBS treated animals received one of the following therapies 5-ASA (100 mg/kg) alone or 5-ASA in combination with one of the following: vitamin C (100 mg/kg), phenyl butylnitrone (PBN; 30 mg/kg) and vitamin E (a tocopherol; 50 mg/kg solubilized in DMSO). The doses of selected antioxidants were derived from the literature in which these agents had been used in experimental models of disease or IBD (19, 22, 23). Comparator groups included TNBS dosed rats that received 8 doses of rectal saline and saline treated controls. Rats were treated for 8 days and then sacrificed.
Histological assessment was used to measure colonic injury. Colonic tissue samples taken from the distal colon were immersed in 10% phosphate buffered formalin and subsequently embedded in paraffin. Sections of 3 micron thickness were stained with hematoxylin and eosin. The slides were then evaluated by a pathologist for epithelial damage, architectural changes, polymorphonuclear leukocyte (PMN) infiltration, mononuclear cell infiltration, and ulceration. The microscopic features of colitis were graded on a 0-3 scale with 0 being normal and 3 representing severe or most intense abnormality. In addition to scoring individual features of colitis, an aggregate score of colitis for each rat was tabulated by adding together individual parameter scores, thus, providing a global assessment of colitis.

[2] = system: cytokine gene expression (IL-1A, IL-1B, 1L-04, IL-6 and TNFα); conditions: similarly designed studies; cited from earlier work
TNBS colitis [3] = assay: Macroscopic injury score of distal colon in TNBS colitis, rectal (enema) treatment; format: in vivo, Male Sprague Dawley rats; conditions: 11 days after TNBS, 8 days of daily rectal treatment, mean±SEM, scale of Table 1, TNBS alone 5.9±0.6
Description: as §1, §2
Three days after TNBS dosing rats were randomly assigned to receive one of the following treatments by enema in a manner similar to that used for TNBS administration. […]
Inflammation was present if the mucosa was erythematous. […] Once macroscopic damage was assessed full thickness colonic tissue samples were taken from inflamed areas and processed for histology.

[4] = distal colonic specimen, 8 days of topical treatment begun 3 days after TNBS

SMILES | MPO activity in the distal colon (MPO activity) [ng/gm] | global microscopic injury score (TNBS colitis [1]; distal colon, 11 days after TNBS, 8 days of daily rectal treatment, mean±SEM, sum of indices graded 0-3, TNBS alone 13.3±0.5) | inflammation in representative photomicrograph (TNBS colitis [1]; [4]) | mucosal ulceration in representative photomicrograph (TNBS colitis [1]; [4]) | reduction of global microscopic colitis vs TNBS (TNBS colitis [1]; printed as reduction/decrease) [%] | cytokine gene expression elicited by TNBS [2] | macroscopic injury score (TNBS colitis [3])
Nc1ccc(O)c(C(=O)O)c1 [5-ASA, 5-aminosalicylic acid] | 354±81 | 9.1±1.0 | mild inflammation in the submucosa | an area of mucosal ulceration | 31 | did not achieve this degree of statistical distinction | 3.8±0.4
CC(=O)N[C@@H](CS)C(=O)O [NAC, N-acetylcysteine] | – | – | – | – | – | did not achieve this degree of statistical distinction | –

Reference: US20110071117A1, “COMBINATIONS OF ANTIOXIDANTS AND ANTI-INFLAMMATORY DRUGS IN THE TREATMENT OF INFLAMMATORY BOWEL DISEASE” (The Board of Regents of the University of Oklahoma, priority 2008, published 2011)
